Data on three molecules can be found in patent US8658373B2, “Method of screening for an agent for treating arthritis and promoting growth of articular chondrocytes” (Kazuwa Nakao, priority 2004, dated 2014).

Entries after “also recorded” stand apart in the source; their conditions may differ. Bridges are numbered along the chain shown (N, C = ends). Where no end group is shown, it is not given here.

In assay [1] the test system is mouse bone marrow macrophages (BMM). Particulars: stimulation of mouse BMM with LPS; cited from earlier work.
The test system of assay [2] is blood thromboxane B2 (TXB2) level. As to conditions: LPS administration in mice; cited from earlier work.
Assay [3] has as its system collagenase OA mouse model (right knee joint). As to the kind of experiment: Combined effect of NSAID and CNP in collagenase OA model. It counts as in vivo. Particulars: 7 days. The procedure:
An osmotic […]) containing the solutions below was transplanted subcutaneously in the back of a 9-week-old male C57BL/6 J strain mouse. • Solvent: Distilled water containing 5% dextrose (Junsei Chemical Co., Ltd., Japan), 10% mannose (Nacalai Tesque Inc., Japan) and 5 mmol/L hydrochloric acid (Wako Pure Chemical Industries, Japan). • 1 μg/mL solution (6 ng/day) of CNP-22 (Calbiochem Novabiochem). In addition, to examine the effect of the NSAID indomethacin (Sigma) when used alone and in combination with the CNP, an indomethacin suspension in 0.2% carboxymethyl cellulose (Nacalai Tesque Inc., Japan) was administered orally in a forced manner at 1 mg/kg once a day for 4 successive days from the date of pump transplantation described above. On the date of pump transplantation and the following day, 6 μL of 0.15% type II collagenase (Sigma) and 6 μL of 1.5% type II collagenase solutions, respectively, were injected into the right knee joint, the breadth of both the right and left knee joints was measured daily with a slide caliper (Mitutoyo Corp., Japan) for 7 days after injection, and the difference between the right and left knee joints was calculated. This difference represented the swelling of knee joints, and the AUC was compared between the solvent control and CNP groups by the Student's t-test (SAS ver. 6.12).

For assay [4] the test system is unchanged. Kind of assay: Therapeutic effect of CNP infusion on collagenase osteoarthritic mouse model. It counts as in vivo. Particulars: for AUC of knee joint swelling (difference between right and left knee joint breadth) vs solvent control: 1.5% collagenase, 28 days; for swelling of the right knee joint vs solvent control: 6 days following 1.5% collagenase. On the procedure:
An osmotic pump (2004 model, Durect) containing the solutions below was transplanted subcutaneously in the back of a 9-week-old male C57BL/6 J strain mouse. • Solvent: Distilled water containing 5% dextrose (Junsei Chemical Co., Ltd., Japan), 10% mannose (Nacalai Tesque Inc., Japan) and 5 mmol/L hydrochloric acid (Wako Pure Chemical Industries, Japan). • 10 μg/mL solution (60 ng/day) of CNP-22 (Calbiochem Novabiochem). • 100 μg/mL solution (600 ng/day) of CNP-22 (Calbiochem Novabiochem.).
Six days after transplantation, 6 μL of 1.5% type II collagenase (Sigma) solution was injected into the right knee joint, the breadth of both the right and left knee joints was measured on time with a slide caliper (Mitutoyo Corp., Japan) for 28 days after injection, and the difference between the right and left knee joints was calculated. This difference represented the swelling of knee joints, and the AUC was compared between the solvent control and CNP groups by the Student's t-test (SAS ver. 6.12). […] Hematoxylin-eosin-stained and safranin O-stained samples were prepared according to the method as described in Example 5, and analyzed histopathologically.

Assay [5] concerns collagen arthritis rat model. As to the kind of experiment: Effect of CNPs on collagen arthritis rat model. It counts as in vivo. Particulars: CNP-22 6 μg/day, days 21, 24 and 28 from antigen sensitization. The procedure:
An osmotic pump (2004 model, Durect) containing the solutions below was transplanted subcutaneously in the back of a 10-week-old female DA/Slc strain rat (Japan SLC, Inc., Japan). • Solvent: Distilled water containing 5% dextrose (Junsei Chemical Co., Ltd., Japan), 10% mannose (Nacalai Tesque Inc., Japan) and 5 mmol/L hydrochloric acid (Wako Pure Chemical Industries, Japan). • 1 mg/mL solution (6 μg/day) of CNP-22 (Calbiochem Novabiochem).
Immediately after transplantation, bovine type II collagen (Collagen Technology Training Co., Japan) was dissolved in 0.1 mol/L aqueous acetic acid so as to make 1.5 mg/mL and suspended in an equal volume of Freund Incomplete Adjuvant (DIFCO LABORATORIES), and 400 μL of the suspension was inoculated into the skin on the back of a rat. Changes in body weight were also measured on a daily basis. In addition, changes in body weight were also measured in a normal group receiving neither pump transplantation nor inoculation.

The test system of assay [6] is adjuvant arthritis rat model. As to the kind of experiment: Effect of CNPs on adjuvant arthritis rat model. It counts as in vivo. Particulars: CNP-22 60 ng/day; for arthritis score of the limb ends vs solvent control: osmotic pump subcutaneous; for body weight vs solvent control: days 7 and 10 from antigen sensitization.
The subject of assay [7] is surgical OA mouse model (right knee joint). Kind of assay: Therapeutic effect of CNP infusion on surgical OA mouse model. It counts as in vivo. Particulars: 4, 8 and 11 days postoperatively. On the procedure:
An osmotic pump (2004 model, Durect) containing the solutions below was transplanted subcutaneously in the back of a 9-week-old male C57BL/6 J strain mouse (CLEA Japan, Japan). • Solvent: Distilled water containing 5% dextrose (Junsei Chemical Co., Ltd., Japan), 10% mannose (Nacalai Tesque Inc., Japan) and 5 mmol/L hydrochloric acid (Wako Pure Chemical Industries, Japan). • […] solution (60 ng/day) of CNP-22 (Calbiochem Novabiochem). • […] solution (600 ng/day) of CNP-22 (Calbiochem Novabiochem).
On the following day of transplantation, the mouse was anesthetized with ether and subjected to the surgical procedures of anterocrucial ligament excision, medial collateral ligament excision and medial meniscus total resection in the right knee joint to induce osteoarthritis. The breadth of both the right and left knee joints was measured on time with a slide caliper (Mitutoyo Corp.) for 11 days after administration, and the difference between the right and left knee joints was calculated. This difference represented the swelling of knee joints, and the AUC was compared between the solvent control and CNP groups by the Student's t-test (SAS Preclinical Package, SAS Institute Japan, Japan).

The mark [8] stands for this setting: CNP-22 60 ng/day continuous subcutaneous.
Where [9] appears, read: CNP-22 600 ng/day continuous subcutaneous.

In the case of “ANP: atrial sodium peptide, a natriuretic peptide acting via NPR-A (SLRRSSCFGGRMDRIGAQSGLGCNSFRY; ends and bridges not checked; cysteine pairing not given here; UniProt P01160 124-151, looked up) [reference compound]”, the “inhibitory effect on the enhancement of PGE2 production” value in assay [1] is “up to 70%”. In addition, the “effect on LPS-increased blood TXB2 level” value in assay [2] is recorded as “inhibitory effect”.

For the molecule `COc1ccc2c(c1)c(CC(=O)O)c(C)n2C(=O)c1ccc(Cl)cc1` [indomethacin], in assay [3] (indomethacin 1 mg/kg oral once a day for 4 days, alone), the “swelling of knee joints (AUC) vs solvent control” value was “not inhibitory; also recorded: did not”.

As to “Gly Leu Ser Lys Gly Cys Phe Gly Leu Lys Leu Asp Arg Ile Gly Ser Met Ser Gly Leu Gly Cys (GLSKGCFGLKLDRIGSMSGLGC; disulfide 6-22; listed as Homo sapiens) [CNP-22, CNP-22 (Calbiochem Novabiochem) used in the tests]”, the “synovial cell growth, granulation and inflammatory cell infiltration in the synovial membrane (histopathology)” value in assay [4] (CNP group vs solvent control, collagenase-induced) is on record as “remarkably reduced”. For the same molecule, the “degeneration of the articular cartilage” value in assay [4] (CNP group, osmotic pump infusion) is reported as “significantly reduced”. The “AUC of knee joint swelling (difference between right and left knee joint breadth) vs solvent control” value in assay [4] (CNP-22 60 ng/day continuous subcutaneous (osmotic pump)) and in assay [4] (CNP-22 600 ng/day continuous subcutaneous (osmotic pump)) was “significantly lower” each time. Further, the “swelling of the right knee joint vs solvent control” value in assay [4] (setting [8]) and in assay [4] (setting [9]) was “significantly inhibited” throughout. In addition, the “inhibitory effect on the enhancement of PGE2 production” value in assay [1] is “up to 20%”. Besides, the entries for the “body weight (body weight loss) vs solvent control” value in assay [5] and in assay [5] (listed as CNP) were “significantly heavy” and “significantly smaller”, respectively. Moreover, the “swelling of knee joints (AUC) vs solvent control” value in assay [3] (CNP-22 6 ng/day continuous subcutaneous alone) is recorded as “significantly inhibited”. The “arthritis score of the limb ends vs solvent control” value is given as “lower” in assay [6] and “somewhat lower” in assay [6] (listed as CNP). In addition, the results for the “body weight vs solvent control” value in assay [6] and in assay [6] (listed as CNP) were “significantly heavy” and “increased significantly”, respectively. For the same molecule, the “AUC of knee joint swelling vs solvent control” value in assay [7] (setting [8]) and in assay [7] (setting [9]) was “significantly lower; also recorded: significantly inhibited” throughout.
